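Protocol summary: plate cells (96-well), add compound at 5 concentrations, incubate 48 h, interpolate endpoints linearly. TGI: total growth inhibition.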
Key:
Assay in all cases: NCI anticancer screen, dose series, 48 h
EKVX NSCLC = tested on: EKVX NSCLC
CCRF-CEM leukemia = tested on: CCRF-CEM leukemia
HT29 colon = tested on: HT29 colon
RPMI-8226 leukemia = tested on: RPMI-8226 leukemia
OVCAR-3 ovarian = tested on: OVCAR-3 ovarian
SF-295 CNS = tested on: SF-295 CNS
SNB-75 CNS = tested on: SNB-75 CNS
SW-620 colon = tested on: SW-620 colon
OVCAR-8 ovarian = tested on: OVCAR-8 ovarian
SN12C renal = tested on: SN12C renal
SF-268 CNS = tested on: SF-268 CNS
SF-539 CNS = tested on: SF-539 CNS
TK-10 renal = tested on: TK-10 renal
SK-MEL-28 melanoma = tested on: SK-MEL-28 melanoma
HCT-15 colon = tested on: HCT-15 colon
SK-MEL-2 melanoma = tested on: SK-MEL-2 melanoma
OVCAR-5 ovarian = tested on: OVCAR-5 ovarian
IGROV1 ovarian = tested on: IGROV1 ovarian
RXF 393 renal = tested on: RXF 393 renal

Structure (SMILES) | TGI (EKVX NSCLC) [µM] | TGI (CCRF-CEM leukemia) [µM] | TGI (HT29 colon) [µM] | TGI (RPMI-8226 leukemia) [µM] | TGI (OVCAR-3 ovarian) [µM] | TGI (SF-295 CNS) [µM] | TGI (SNB-75 CNS) [µM] | TGI (SW-620 colon) [µM] | TGI (OVCAR-8 ovarian) [µM] | TGI (SN12C renal) [µM] | TGI (SF-268 CNS) [µM] | TGI (SF-539 CNS) [µM] | TGI (TK-10 renal) [µM] | TGI (SK-MEL-28 melanoma) [µM] | TGI (HCT-15 colon) [µM] | TGI (SK-MEL-2 melanoma) [µM] | TGI (OVCAR-5 ovarian) [µM] | TGI (IGROV1 ovarian) [µM] | TGI (RXF 393 renal) [µM]
O=C(/C=C/c1ccc(F)c(F)c1)OCCc1ccccc1 | > 100 | > 100 | > 100 | > 100 | > 100 | > 100 | > 100 | > 100 | > 100 | > 100 | > 100 | > 100 | > 100 | > 100 | > 100 | > 100 | > 100 | > 100 | 
COC(=O)CNC(=O)Nc1cc(N2C(=O)ON3C2C(C)(C)N(O)C3(C)C)ccc1C (centres undefined) | > 100 | > 100 | > 100 |  | > 100 | > 100 | > 100 | > 100 | > 100 | > 100 | > 100 | > 100 | > 100 | > 100 | > 100 | > 100 | > 100 | > 100 | > 100
CCCCCC(=O)Cc1cc(OC)cc2c1C(=O)Oc1cc(O)c(C(=O)O)c(CC(=O)CCCCC)c1O2 | > 100 | > 100 | > 100 | > 100 | 43.8 | > 100 | > 100 | > 100 | > 100 |  | > 100 |  | > 100 |  |  |  | > 100 | > 100 | 
COc1ccc(C2S/C(=C\c3cccc(O)c3)C(=O)N2NC(=O)Cc2ccccc2)cc1 (centres undefined) |  | > 100 | > 100 | > 100 |  | > 100 | > 100 | > 100 | > 100 | > 100 | > 100 | > 100 | > 100 |  | > 100 | > 100 | > 100 | > 100 | > 100
CCOC(=O)CCC(NC(=O)c1ccc(Oc2nc3ccccc3nc2C(=O)OCC)cc1)C(=O)OCC (centres undefined) | > 100 | > 100 | > 100 | > 100 | > 100 | > 100 | 98.1 | > 100 | > 100 | > 100 | > 100 | > 100 | > 100 | > 100 | > 100 | > 100 | > 100 | > 100 | 
O=c1cc(-c2ccccc2Cl)[nH]c2cc3c(cc12)OCO3 |  | 0.381 | 1.46 | 0.565 | 0.4 | 3.03 | > 100 | > 100 | 9.88 | 29.1 | > 58.9 | 0.458 | > 44.7 | > 63.3 | 0.355 | 3.74 | > 100 | > 37.5 | 16.4
C=C1CC(C/C=C(\C)CC2CC(=C)C(=O)O2)OC1=O (centres undefined) | > 100 | > 100 | > 100 |  | > 100 | > 100 | > 100 | > 100 | > 100 | > 100 | > 100 | > 100 | > 100 | > 100 | > 100 | > 100 | > 100 | > 100 | > 100

From PubChem BioAssay (NCI)
